pIC50: −log10 of the molar value. Values after ≈ are worked out from the molar mass of the structure shown. Where two headings read alike, the source gives them in different places.
Columns and labels:
[1] = test system: P. falciparum D6; experiment: Malaria SYBR Green Fluorescence Assay, D6 strain; type: cell-based, Plasmodium falciparum
[2] = test system: P. falciparum W2; experiment: Malaria SYBR Green Fluorescence Assay, W2 strain; type: cell-based, Plasmodium falciparum
[3] = test system: P. falciparum C235; experiment: Malaria SYBR Green Fluorescence Assay, C235 strain; type: cell-based, Plasmodium falciparum
[4] = test system: P. berghei; experiment: Thompson Test, in vivo mouse malaria assay; design: species or system mice (ICR strain)
[5] = test system: P. cynomolgi
[6] = target: T1, hERG potassium ion channel (Homo sapiens, UniProt Q12809); experiment: hERG patch clamp assay (% inhibition at 10 μM); conditions: for hERG (% inhibition): 10 μM
[7] = test system: drug resistant strains of P. falciparum; experiment: in vitro profiling against different drug resistant strains of P. falciparum; type: cell-based, Plasmodium falciparum
[8] = target: T1, hERG potassium ion channel; conditions: 10 μM
[9] = in vivo
[10] = target: hERG channel (Homo sapiens, UniProt Q12809)
[11] = % inhibition at 10 μM, patch clamp
[12] = Plasmodium falciparum, SYBR Green Assay
[13] = (160 × 3): 160 mg/kg for 3 days

T1 sequence (Q12809 whole entry): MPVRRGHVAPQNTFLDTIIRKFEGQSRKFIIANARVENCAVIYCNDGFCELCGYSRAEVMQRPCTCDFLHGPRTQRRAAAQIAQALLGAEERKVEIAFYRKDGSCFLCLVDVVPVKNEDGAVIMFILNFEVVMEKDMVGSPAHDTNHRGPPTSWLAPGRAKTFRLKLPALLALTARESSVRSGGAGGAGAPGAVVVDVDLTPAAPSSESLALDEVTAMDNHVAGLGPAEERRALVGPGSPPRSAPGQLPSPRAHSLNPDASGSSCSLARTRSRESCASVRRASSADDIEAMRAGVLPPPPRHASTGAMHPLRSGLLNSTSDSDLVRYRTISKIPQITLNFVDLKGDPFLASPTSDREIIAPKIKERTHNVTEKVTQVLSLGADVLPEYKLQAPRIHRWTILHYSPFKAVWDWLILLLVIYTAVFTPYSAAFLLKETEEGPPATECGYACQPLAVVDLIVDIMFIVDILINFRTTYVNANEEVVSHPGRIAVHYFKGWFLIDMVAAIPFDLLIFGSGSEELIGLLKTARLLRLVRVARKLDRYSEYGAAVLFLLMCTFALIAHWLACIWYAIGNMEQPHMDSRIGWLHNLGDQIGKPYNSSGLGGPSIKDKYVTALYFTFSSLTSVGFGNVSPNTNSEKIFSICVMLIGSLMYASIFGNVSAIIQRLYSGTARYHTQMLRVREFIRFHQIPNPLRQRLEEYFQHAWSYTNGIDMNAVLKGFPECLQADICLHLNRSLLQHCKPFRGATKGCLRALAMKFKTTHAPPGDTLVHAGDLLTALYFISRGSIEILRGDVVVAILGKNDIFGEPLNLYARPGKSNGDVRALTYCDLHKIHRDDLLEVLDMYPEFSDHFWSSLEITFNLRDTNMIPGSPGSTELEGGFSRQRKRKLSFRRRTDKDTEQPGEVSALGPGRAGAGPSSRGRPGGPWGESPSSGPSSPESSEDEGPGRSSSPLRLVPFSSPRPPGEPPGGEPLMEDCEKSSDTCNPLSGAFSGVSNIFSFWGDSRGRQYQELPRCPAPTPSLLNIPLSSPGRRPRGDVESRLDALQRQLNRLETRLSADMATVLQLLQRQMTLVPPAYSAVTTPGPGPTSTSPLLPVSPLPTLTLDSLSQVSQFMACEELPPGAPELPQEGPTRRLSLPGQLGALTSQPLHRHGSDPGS
hERG channel, sequence (Q12809 whole entry): as above

Row | Compound | D6 ([1]; SYBR Green Assay) [ng/mL] | W2 ([2]; SYBR Green Assay) [ng/mL] | C235 ([3]; SYBR Green Assay) [ng/mL] | In vivo Results Thompson Assay (n/N Cures or Suppressive) ([4]; (80 × 3): 80 mg/kg for 3 days) | hERG ([6]; hERG activity as % inhibition) [%] | further results
1 | CC(C)(N)CNc1nc(-c2ccc(C(Cl)(Cl)Cl)cc2)nc(C(Cl)(Cl)Cl)n1 [Compound 55] | 46 | 30 | 89 | 5/5 | – | In vivo Results Thompson Assay (n/N Cures or Suppressive) ([4]; (40 × 3): 40 mg/kg for 3 days): 3/5; Rhesus Results ([5]; 65 mg/kg once weekly): prophylaxis; Rhesus Results ([5]; 65 mg/kg/day × 7 days): malaria cures; hERG [6, 11]: 17%
2 | ClC(Cl)(Cl)c1nc(-c2ccc3ccccc3c2)nc(N2CCCNCC2)n1 [Compound 227] | 29 | 10 | 12 | (80 × 3) 2/5 Cures | – | hERG [6, 11]: 18%
3 | CC(C)(N)CNc1nc(-c2ccccc2)nc(C(Cl)(Cl)Cl)n1 [Compound 312] | 8 | 3 | 18 | (80 × 3) 3/3 Cures;(40 × 3) | – | In vivo Results Thompson Assay (n/N Cures or Suppressive) ([4]; (40 × 3): 40 mg/kg for 3 days): Suppressive; hERG [6, 11]: 65%
4 | CC(C)(C)c1ccc(-c2nc(NCC3(N)CCOCC3)nc(C(Cl)(Cl)Cl)n2)cc1 [Compound 314] | 7 | 2 | 16 | (80 × 3) Suppressive | – | hERG [6, 11]: 5%
5 | COc1ccc(-c2nc(NC3CC(C)(C)NC(C)(C)C3)nc(C(Cl)(Cl)Cl)n2)cc1OC [Compound 328] | 64 | 40 | 84 | (80 × 3) 2/5 Cures | – | hERG [6, 11]: 31%
6 | CCC(N)(CC)CNc1nc(-c2ccc(S(C)(=O)=O)cc2)nc(C(Cl)(Cl)Cl)n1 [Compound 365] | – | – | – | (80 × 3) Suppressive | – | D6 (SYBR Green Assay IC50) [1]: 0.005 µg/mL; W2 (SYBR Green Assay IC50) [2]: 0.005 µg/mL; C235 (SYBR Green Assay IC50) [3]: 0.01 µg/mL; hERG (% inhibition) [6]: 69%
7 | CS(=O)(=O)c1ccc(-c2nc(N3CC4CC3CN4)nc(C(Cl)(Cl)Cl)n2)cc1 (stereo not shown) [Compound 724, CS(═O)(═O)c1ccc(cc1)c2nc(nc(n2)C(Cl)(Cl)Cl)N3CC4CC3CN4] | 106 | 71 | 110 | (80 × 3) Suppressive | 70 | –
8 | FC(F)(F)c1cccc(-c2nc(N3CC4CC3CN4)nc(C(Cl)(Cl)Cl)n2)c1 (stereo not shown) [Ex. 7, 2-(4-(trichloromethyl)-6-(3-(trifluoromethyl)phenyl)-1,3,5-triazin-2-yl)-2,5-diazabicyclo[2.2.1]heptane] | – | – | – | Suppressive | 29 | IC50 [1, 12]: 0.106 µg/mL (≈ 0.242 µM); IC50 [2, 12]: 0.126 µg/mL (≈ 0.287 µM); IC50 [3, 12]: 0.192 µg/mL (≈ 0.438 µM); In vivo Results Thompson Assay (n/N Cures or Suppressive) [4, 13]: 4/5
9 | CC(C)(C)c1ccc(cc1)c2nc(nc(n2)C(Cl)(Cl)Cl)N3CC4CC3CN4 [Compound 721] | 142 | 69 | 126 | (80 × 3) 2/5 Cures | 2 | Rhesus Results ([5]; 65 mg/kg once weekly): prophylaxis; Rhesus Results ([5]; 65 mg/kg/day × 7 days): malaria cures
10 | CC(CNc1nc(Nc2ccc(Cl)c(Cl)c2)nc(n1)C(Cl)(Cl)Cl)N(C)C [Compound 641] | – | – | – | (80 × 3) 5/5 Cures | – | D6 (SYBR Green Assay IC50) [1]: 0.015 µg/mL; W2 (SYBR Green Assay IC50) [2]: 0.005 µg/mL; C235 (SYBR Green Assay IC50) [3]: 0.013 µg/mL; In vivo Results Thompson Assay (n/N Cures or Suppressive) ([4]; (40 × 3): 40 mg/kg for 3 days): 2/5; In vivo Results Thompson Assay (n/N Cures) ([4]; (160 × 1): single 160 mg/kg PO dose): 5/5; in vitro potency [7]: excellent in vitro potency; hERG (% inhibition) [8]: 117%; Rhesus Results ([5]; 65 mg/kg once weekly): prophylaxis; Rhesus Results ([5]; 65 mg/kg/day × 7 days): malaria cures; malaria parasitemia, prophylactic drug, rhesus P. cynomolgi relapsing model ([5]; dosed once weekly (65 mg, PO)): prevented malaria parasitemia; tolerability ([5]; rhesus monkey, in vivo, 316 mg/kg): well tolerated; mouse half-life ([9]; po, 80 mg/kg): 8 h; Cmax ([9]; mouse): > 600 nM; pIC50 [10]: 6.22
11 | CCN1CCC(CC1)C(C)Nc2nc(Nc3ccc(Cl)c(Cl)c3)nc(n2)C(Cl)(Cl)Cl [Compound 643] | – | – | – | (80 × 3) 2/5 Cures | – | D6 (SYBR Green Assay IC50) [1]: 0.047 µg/mL; W2 (SYBR Green Assay IC50) [2]: 0.033 µg/mL; C235 (SYBR Green Assay IC50) [3]: 0.048 µg/mL; hERG (% inhibition) [6]: 100%
12 | CCN1CCCC(C1)Nc2nc(Nc3cc(Cl)cc(Cl)c3)nc(n2)C(Cl)(Cl)Cl [Compound 638] | – | – | – | (80 × 3) Suppressive | – | D6 (SYBR Green Assay IC50) [1]: 0.005 µg/mL; W2 (SYBR Green Assay IC50) [2]: 0.005 µg/mL; C235 (SYBR Green Assay IC50) [3]: 0.005 µg/mL; hERG (% inhibition) [6]: 49%
13 | COC1═CC═CC(═C1)C1═NC(NCC2(N)CCCCC2)═NC(═N1)C(Cl)(Cl)Cl [Compound 661] | 3 | 2 | 8 | (80 × 3) Suppressive | 32 | –
14 | Cc1ccc(cc1)c2nc(nc(n2)C(Cl)(Cl)Cl)N3CC4CC3CN4 [Compound 719] | 96 | 68 | 114 | (80 × 3) Suppressive; (160 × 3) | 10 | In vivo Results Thompson Assay (n/N Cures or Suppressive) [4, 13]: Suppressive
15 | ClC(Cl)(Cl)c1ccc(cc1)c2nc(nc(n2)C(Cl)(Cl)Cl)N3CC4CC3CN4 [Compound 722] | 9 | 5 | 12 | Suppressive | 14 | In vivo Results Thompson Assay (n/N Cures or Suppressive) [4, 13]: 5/5
16 | ClC(Cl)(Cl)c1nc(NCCCN2CCCC2)nc(Nc3ccc(cc3)n4cccn4)n1 [Compound 728] | 77 | 27 | 79 | (80 × 3) Suppressive | 116 | –
17 | FC(F)(F)OC1═CC═C(NC2═NC(═NC(═N2)N2CCCNCC2)C(Cl)(Cl)Cl)C═C1 [Compound 659] | 19 | 18 | 38 | (80 × 3) 4/5 Cures | 58 | –
18 | NC1(CNC2═NC(═NC(═N2)C2═CC═C(C═C2)C2═CC═CC═C2)C(Cl)(Cl)Cl)CCCC1 [Compound 672] | 46 | 30 | 68 | (80 × 3) 4/4 Cures | 33 | –
19 | NC1CCN(CC1)c2nc(nc(n2)C(Cl)(Cl)Cl)c3ccc(cc3)C(Cl)(Cl)Cl [Compound 743] | 22 | 16 | 14 | (80 × 3) 3/5 Cures; (40 × 3) | 15 | In vivo Results Thompson Assay (n/N Cures or Suppressive) ([4]; (40 × 3): 40 mg/kg for 3 days): Suppressive
